# Measurements from the supplement of paper PMC10307832.
# Experiments:
# Test in all cases: relative viability (nuclei count vs DMSO), 5 days (fraction); higher = more cells survive
# Mirin + Lapatinib = compound: N=C1NC(=O)/C(=C/c2ccc(O)cc2)S1 [Mirin] + CS(=O)(=O)CCNCc1ccc(-c2ccc3ncnc(Nc4ccc(OCc5cccc(F)c5)c(Cl)c4)c3c2)o1 [Lapatinib] (partner 2 µM)
# In short: (§1)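 After 5 days of treatment, lung cancer cells in 1536-well plates were fixed and stained in a single step (final 0.05% Triton X-100, 1% formaldehyde, 1 ug/ml Hoechst) and their nuclei counted on 4× images. Treatment had been applied by pin tool the day after seeding as one drug alone or as a fixed anchor-drug dose with five library-drug doses (not always all listed) in √10 steps. Relative viability is the nuclei count of treated wells divided by that of vehicle wells, and values are medians of duplicate plates.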
# [1] = compound: CCn1c(-c2nonc2N)nc2cnc(Oc3cccc(NC(=O)c4ccc(OCCN5CCOCC5)cc4)c3)cc21 + O=C(c1cc(Cc2n[nH]c(=O)c3ccccc23)ccc1F)N1CCN(C(=O)C2CC2)CC1 [Olaparib] (partner 8 µM)
# In short: as §1
# Mirin + Decitabine = compound: N=C1NC(=O)/C(=C/c2ccc(O)cc2)S1 [Mirin] + Nc1ncn([C@H]2C[C@H](O)[C@@H](CO)O2)c(=O)n1 [Decitabine] (partner 2 µM)
# In short: as §1
# [2] = compound: CCn1c(-c2nonc2N)nc2cnc(Oc3cccc(NC(=O)c4ccc(OCCN5CCOCC5)cc4)c3)cc21 + CCNC(=O)c1noc(-c2cc(C(C)C)c(O)cc2O)c1-c1ccc(CN2CCOCC2)cc1 [Luminespib] (partner 0.01 µM)
# In short: as §1
Cell Line,relative viability (Mirin + Lapatinib; first compound 0.25 µM),relative viability (Mirin + Lapatinib; first compound 0.7906 µM),relative viability (Mirin + Lapatinib; first compound 2.5 µM),relative viability (Mirin + Lapatinib; first compound 7.906 µM),relative viability (Mirin + Lapatinib; first compound 25 µM),relative viability ([1]; first compound 0.04 µM),relative viability ([1]; first compound 0.1265 µM),relative viability ([1]; first compound 1.265 µM),relative viability ([1]; first compound 4 µM),relative viability (Mirin + Decitabine; first compound 0.25 µM),relative viability (Mirin + Decitabine; first compound 0.7906 µM),relative viability (Mirin + Decitabine; first compound 2.5 µM),relative viability (Mirin + Decitabine; first compound 7.906 µM),relative viability (Mirin + Decitabine; first compound 25 µM),relative viability ([1]; first compound 0.4 µM),relative viability ([2]; first compound 0.04 µM),relative viability ([2]; first compound 0.1265 µM),relative viability ([2]; first compound 0.4 µM),relative viability ([2]; first compound 1.265 µM),relative viability ([2]; first compound 4 µM)
HCC-78,0.921,0.761,0.837,0.774,0.552,0.789,0.97,0.832,0.946,0.514,0.764,0.698,0.565,0.657,,,,,,
HCC-366,1.06,0.957,1.07,0.986,0.752,0.334,0.303,0.0675,0.0475,0.342,0.315,0.325,0.322,0.374,0.416,,,,,
HCC-827,0.167,0.182,0.17,0.2,0.227,0.686,0.693,0.501,0.509,0.17,0.262,0.36,0.308,0.351,0.698,1.09,0.592,0.792,0.591,0.588
HOP-62,1.05,1.16,1.01,,1.23,0.679,0.379,,0.351,0.221,0.188,0.203,0.224,0.218,0.372,1.11,1.01,0.936,0.764,0.735
IA-LM,0.676,0.851,1.09,0.431,0.608,0.967,0.834,0.796,0.765,,,,,,0.791,,,,,
LC-2-ad,0.967,1.03,0.947,0.783,0.98,0.753,0.677,0.438,0.334,0.843,0.814,0.743,0.78,0.921,0.716,0.937,0.801,0.715,0.568,0.752
LCLC-97TM1,1.04,0.594,0.857,0.867,1,0.518,0.381,0.387,0.423,0.239,0.224,0.228,0.179,0.197,,0.923,0.728,0.664,0.882,0.856
LCLC-103H,,,,,,0.908,0.816,0.717,0.715,0.692,0.759,0.736,0.797,0.871,0.712,1.08,1.02,1.1,0.721,0.779
LK-2,0.787,,0.879,0.593,0.496,1.13,0.745,0.326,0.555,0.161,0.206,0.299,0.21,0.227,0.367,0.216,0.147,0.169,0.202,0.244
LOU-NH91,0.786,,0.782,0.774,0.702,0.919,0.756,0.494,0.534,0.799,0.843,0.874,0.9,1.03,0.665,0.367,0.328,0.331,0.271,0.248
LU99A,1.05,0.79,0.888,0.809,0.749,0.313,0.299,0.256,0.244,0.877,0.785,0.94,0.892,0.736,0.262,0.264,0.221,0.286,0.26,0.249
LXF-289,0.906,1.01,0.91,1.04,1.04,1.07,1.22,1.12,0.984,0.347,0.394,0.335,0.347,0.387,1.01,0.791,0.638,0.798,0.701,0.654
NCI-H441,,,,,,0.74,0.589,0.439,0.394,0.251,0.259,0.244,0.217,0.218,0.454,0.333,0.342,,0.326,0.416
NCI-H522,,,,,,0.661,0.614,0.514,0.554,0.576,0.611,0.668,0.654,0.524,0.665,1.04,1.27,0.853,0.797,0.767
NCI-H1299,0.984,0.973,0.977,1.01,1.12,0.975,0.958,0.712,0.52,,,,,,0.867,,,,,
NCI-H1563,1.05,1.09,1.09,0.867,0.853,,,,,,,,,,,1.23,0.514,0.482,0.466,0.48
NCI-H1623,,,,,,,,,,,,,,,,0.527,0.555,0.509,0.49,0.706
NCI-H1648,,,,,,0.604,0.577,1.26,1.5,0.559,,0.51,0.525,0.418,1.35,,,,,
NCI-H1703,1.11,1.23,1.29,0.768,0.826,0.469,0.452,0.333,0.303,,,,,,0.675,,,,,
NCI-H2228,0.88,1,1.51,1.12,0.921,1.13,0.742,0.671,0.544,,,,,,0.776,0.118,0.109,0.133,0.162,0.124
NCI-H2342,,,,,,0.439,0.508,0.368,0.361,0.77,0.775,0.684,,0.633,0.469,0.763,0.847,0.715,0.665,0.785
SW 900,,,,,,0.899,0.924,0.826,0.694,0.326,0.413,0.438,0.414,0.384,1.13,0.178,0.197,0.178,0.154,0.174
